Results: patent publication US9073940B2, “Tricyclic pyrazol amine derivatives” (MERCK SERONO SA, priority 2009, dated 2015)

Tested on: 4 PI3K isoforms (Human recombinant GST-PI3K)
Assay: PI3K scintillation proximity assay, best IC50 obtained with the four isoforms (alpha, beta, delta, gamma)
Type: biochemical
Conditions: best IC50 obtained with the four isoforms of PI3K; read-out: Best potency measured on the 4 PI3K isoforms

**Q.** For `COCCOc1cccc(-n2nc(C(=O)N3CCOCC3)c3c2-c2ccccc2S(=O)(=O)C3)c1` [Example 341, 1-[3-(2-Methoxyethoxy)phenyl]-3-(morpholin-4-ylcarbonyl)-1,4-dihydrothiochromeno[4,3-c]pyrazole 5,5-dioxide], which IC50 is on record?
**A.** 726 nM

**Q.** How did the IC50 turn out when `O=C(c1nn(C2CCOC2)c2c1CS(=O)(=O)c1ccccc1-2)N1CCOCC1` (stereo not shown) [Example 342, 3-(Morpholin-4-ylcarbonyl)-1-(tetrahydrofuran-3-yl)-1,4-dihydrothiochromeno[4,3-c]pyrazole 5,5-dioxide] was run?
**A.** 890 nM

**Q.** For `CC1COCCN1Cc1ccc(-n2nc(C(=O)N3CCOCC3)c3c2-c2ccccc2S(=O)(=O)C3)cc1` (stereo not shown) [Example 357, 1-{4-[(3-Methylmorpholin-4-yl)methyl]phenyl}-3-(morpholin-4-ylcarbonyl)-1,4-dihydrothiochromeno[4,3-c]pyrazole 5,5-dioxide], which IC50 is on record?
**A.** 180 nM

**Q.** For `O=C(c1nn(-c2cccc(OCCn3ccnc3)c2)c2c1CS(=O)(=O)c1ccccc1-2)N1CCOCC1` [Example 360, 1-{3-[2-(1H-Imidazol-1-yl)ethoxy]phenyl}-3-(morpholin-4-ylcarbonyl)-1,4-dihydrothiochromeno[4,3-c]pyrazole 5,5-dioxide], which IC50 is on record?
**A.** 179 nM

**Q.** With `O=C(c1nn(C2CCOC2)c2c1CS(=O)(=O)c1c(F)cccc1-2)N1CCOCC1` (stereo not shown) [Example 365, 6-Fluoro-3-(morpholin-4-ylcarbonyl)-1-(tetrahydrofuran-3-yl)-1,4-dihydrothiochromeno[4,3-c]pyrazole 5,5-dioxide] as the compound, how does the IC50 read?
**A.** 353 nM

**Q.** With `O=C(c1nn([C@@H]2CCCN(CCN3CCOCC3)C2)c2c1CS(=O)(=O)c1c(Cl)cccc1-2)N1CCOCC1` [Example 387] as the compound, how does the IC50 read?
**A.** 5230 nM

**Q.** With `O=C(c1nn(-c2ccc(CN3CCOCC3)cc2)c2c1CS(=O)(=O)c1ccc(F)cc1-2)N1CCOCC1` [Example 392, 8-Fluoro-3-(morpholin-4-ylcarbonyl)-1-[4-(morpholin-4-ylmethyl)phenyl]-1,4-dihydrothiochromeno[4,3-c]pyrazole 5,5-dioxide] as the compound, how does the IC50 read?
**A.** 555 nM

**Q.** How did the IC50 turn out when `O=C(c1nn(C2CN3CCC2CC3)c2c1CS(=O)(=O)c1ccccc1-2)N1CCOCC1` (stereo not shown) [Example 393] was run?
**A.** 10200 nM

**Q.** With `O=C(c1ccoc1)N1CCC[C@H](n2nc(C(=O)N3CCOCC3)c3c2-c2ccccc2S(=O)(=O)C3)C1` [Example 396] as the compound, how does the IC50 read?
**A.** 750 nM

**Q.** With `O=C(c1nn([C@H]2CCCN(C(=O)C3CCOCC3)C2)c2c1CS(=O)(=O)c1ccccc1-2)N1CCOCC1` [Example 397] as the compound, how does the IC50 read?
**A.** 1500 nM

**Q.** How did the IC50 turn out when `O=C(CC1CCOCC1)N1CCC[C@H](n2nc(C(=O)N3CCOCC3)c3c2-c2ccccc2S(=O)(=O)C3)C1` [Example 398] was run?
**A.** 345 nM

**Q.** How did the IC50 turn out when `O=C(CC1CCCCC1)N1CCC[C@H](n2nc(C(=O)N3CCOCC3)c3c2-c2ccccc2S(=O)(=O)C3)C1` [Example 399] was run?
**A.** 735 nM

**Q.** For `O=C(c1nn(C2CCCN(CC3CCOC3)C2)c2c1CS(=O)(=O)c1c(F)cccc1-2)N1CCOCC1` (stereo not shown) [Example 404, 6-Fluoro-3-(morpholin-4-ylcarbonyl)-1-[1-(tetrahydrofuran-3-ylmethyl)piperidin-3-yl]-1,4-dihydrothiochromeno[4,3-c]pyrazole 5,5-dioxide], which IC50 is on record?
**A.** 21 nM

**Q.** With `O=C(c1nn(C2CN(CCC3CCOCC3)C2)c2c1CS(=O)(=O)c1ccccc1-2)N1CCOCC1` [Example 405, 3-(Morpholin-4-ylcarbonyl)-1-{1-[2-(tetrahydro-2H-pyran-4-yl)ethyl]azetidin-3-yl}-1,4-dihydrothiochromeno[4,3-c]pyrazole 5,5-dioxide] as the compound, how does the IC50 read?
**A.** 95 nM

**Q.** For `O=C(c1nn(C2CCCN(CCn3cccn3)C2)c2c1CS(=O)(=O)c1c(F)cccc1-2)N1CCOCC1` (stereo not shown) [Example 406, 6-Fluoro-3-(morpholin-4-ylcarbonyl)-1-{1-[2-(1H-pyrazol-1-yl)ethyl]piperidin-3-yl}-1,4-dihydrothiochromeno[4,3-c]pyrazole 5,5-dioxide], which IC50 is on record?
**A.** 80 nM

**Q.** `O=C(c1nn(C2CN(CCN3CCOCC3)C2)c2c1CS(=O)(=O)c1ccccc1-2)N1CCOCC1` [Example 407, 3-(Morpholin-4-ylcarbonyl)-1-[1-(2-morpholin-4-ylethyl)azetidin-3-yl]-1,4-dihydrothiochromeno[4,3-c]pyrazole 5,5-dioxide] was tested. Which IC50 did it give?
**A.** 236 nM
